Paper PMC4721142, “Randomized controlled studies on the efficacy of antiarthritic agents in inhibiting cartilage degeneration and pain associated with progression of osteoarthritis in the rat” (Arthritis Research & Therapy, 2016)
Where two headings read alike, the source gives them in different places.

Key:
[1] = system: NF-κB; assay: TNF-α-stimulated NF-κB dual luciferase reporter assay in HeLa cells; type: cell-based
Experimental: NF-κB activity was assessed using a previously described dual plasmid reporter system. HeLa cells were transfected with NF-κB luciferase (Stratagene Products Division, Agilent Technologies, La Jolla, CA, USA) and pRLuc-N3 (PerkinElmer, Waltham, MA, USA) at an 8:1 ratio, respectively, in triplicate. […] NF-κB activity was measured 5 h later with a Dual-Glo Luciferase Assay (Promega, Madison, WI, USA) and an Omni plate reader (BMG Labtech, Cary, NC, USA). The ratio of firefly luciferase luminescence (NF-κB reporter) to Renilla luciferase luminescence (control) was normalized for the number of viable transfected cells. Data are reported as a ratio of activity of viable treated cells over the activity of cells not exposed to TNF-α or drug (fold stimulation above basal untreated levels of activity). The viability of HeLa cells with and without drug was also measured using a CellTiter-Glo luminescent viability assay (Promega). […]
NF-κB activity was assessed in HeLa cells that were transiently transfected with two reporter constructs as described in the manuscript. Agents were tested for their ability to block TNF- […]
Expression of the luciferase from the Renilla construct was used as a measure of viability, which was confirmed with a cytotoxicity assay (see later section).

[2] = system: IKK-2; settings: reported; cited from earlier work
[3] = Comparison of in vitro screens: overlapping effective and nontoxic range; settings: for Overlapping effective and nontoxic range: inhibits with minimal or no toxicity to synovium or cartilage, overlapping range if effective in more than one assay;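 for all read-outs here: compares non-toxic ranges in synovial cells and chondrocytes with effective ranges against NFkB, MMP-13 and osteoclasts, giving their overlap as the predicted efficacy range in uM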
[4] = system: SW982; assay: Synovial toxicity (CellTiter-Glo), with or without TNF-α
Experimental: (§1) Viability was measured with the CellTiter-Glo luminescent viability assay (Promega). […] To more accurately predict the effects of the drugs on osteoarthritic synovium, cells were tested with or without TNF-α (20 ng/ml; BioSource).
(§2) In Vitro Toxicity Testing with a Synovial Cell Line
(§3) Compounds were tested for synovial toxicity using SW982 cells alone or in the presence of TNF as

[5] = system: Normal human articular chondrocytes; assay: Cytotoxicity to chondrogenic pellets (CellTiter-Blue)
Experimental: (§4) Differentiated chondrogenic pellets were used both to test the ability of drugs to block MMP-13 activity and to test for drug toxicity. […] Supernatants were collected and analyzed for MMP-13 using an enzyme-linked immunosorbent assay (GE Healthcare Life Sciences, Little Chalfont, UK). Cytotoxicity to pellets was assessed using CellTiter-Blue (Promega).

[6] = system: HeLa cells; assay: HeLa cell viability (CellTiter-Glo)
Experimental: NF-κB activity was assessed using a previously described dual plasmid reporter system. HeLa cells were transfected with NF-κB luciferase (Stratagene Products Division, Agilent Technologies, La Jolla, CA, USA) and pRLuc-N3 (PerkinElmer, Waltham, MA, USA) at an 8:1 ratio, respectively, in triplicate. […] NF-κB activity was measured 5 h later with a Dual-Glo Luciferase Assay (Promega, Madison, WI, USA) and an Omni plate reader (BMG Labtech, Cary, NC, USA). The ratio of firefly luciferase luminescence (NF-κB reporter) to Renilla luciferase luminescence (control) was normalized for the number of viable transfected cells. Data are reported as a ratio of activity of viable treated cells over the activity of cells not exposed to TNF-α or drug (fold stimulation above basal untreated levels of activity). The viability of HeLa cells with and without drug was also measured using a CellTiter-Glo luminescent viability assay (Promega).
In Vitro Hela Cell Drug Toxicity Testing
Potential drug toxicity was measured using a CTG assay and HeLa cells (Promega). Drugs not tested in
this assay were tested in either of the in vitro toxicity assays already presented (synovial or chondrocyte
Table 3- Drug toxicity measured using a CTG assay and HeLa cells.

[7] = system: IKK-1; settings: reported, cited from earlier work
[8] = published half-life; cited from earlier work
[9] = system: RAW 264.7 cells; assay: RANKL-mediated osteoclastogenesis / matrix resorption (Osteologic) assay; type: cell-based, murine
Experimental: RAW 264.7 cells (American Type Culture Collection [ATCC], Manassas, VA, USA), a murine monocytic cell line that differentiates in the presence of RANKL, was used for measurements of osteoclastogenesis and osteoclast activity. Cells were amplified on nonadherent culture substratum in high-glucose Dulbecco’s modified Eagle’s medium (DMEM) containing 10 % fetal bovine serum (FBS) and penicillin-streptomycin in a 37 °C, 5 % CO2, humidified incubator and were passaged by manual dissociation. […] Plates were subsequently rinsed, bleached, dried, and analyzed for matrix degradation using a Nikon COOLSCOPE (Nikon Instruments, Melville, NY, USA). Matrix resorption was quantified using EclipseNet (Nikon Instruments)/Visiopharm (Visiopharm, Hørsholm, Denmark) software (see Additional file 1).
In Vitro Osteoclastogenesis
Osteoclastogenic activity was measured using BD osteologic plates and quantitation of the degree of bone matrix digestion on the plate surface. Images from the BD Osteologic assay used to […]
left pane depicts an example of a control well after removal of cells from matrix. Pseudocoloring of matrix (blue) and pits (green) is shown in the far right pane. A transparent overlay of the two images is shown in the center.
Figure 5 - Measurement of drug effects on osteoclastogenesis and osteoclast activity.
Comparisons were made between RANKL treated control wells and wells treated with both RANKL and […]
Agents were initially tested either during differentiation or post differentiation in the bone assay […]
(e.g., Figure 2, Sulfazalazine). […]
indicated (*/**: p < 0.05/0.01, unpaired t-test versus RANKL control). […]

[10] = system: MMP-13; assay: MMP-13 ELISA on supernatants of TNF-α-treated chondrogenic pellets; type: cell-based, human
[11] = system: SW982
Experimental: as §1, §2, §3

[12] = system: Normal human articular chondrocytes
Experimental: as §4

[13] = system: NF-κB; settings: cited from earlier work
[14] = system: IκBα phosphorylation; design: method as in PMID 18849610; settings: reported; read-out: IC50 for block of IκBα phosphorylation; cited from earlier work
[15] = system: TNF-α in human monocytes; design: method as in PMID 15316093; settings: reported; read-out: IC50, inhibits TNF-α in human monocytes; cited from earlier work
[16] = system: rat inflammatory arthritis model; design: method as in per Calbiochem; settings: 30 mg/kg; ref per Calbiochem; cited from earlier work
[17] = system: IL-8 and IL-6 in synovial fibroblasts; design: method as in PMID 15316093; settings: reported; read-out: IC50, blocks IL-8 and IL-6 in synovial fibroblasts; cited from earlier work

| SMILES | Effective against NF κβ (p<0.05) [1] | IC50 [2] [nM] | Non-toxic & predicted range of efficacy [3] [µM] | Overlapping effective and nontoxic range [3] | Non-toxic range (Synovial) [4] [µM] | Non-toxic range (Chondrocyte) [5] [µM] | Non-toxic concentrations [6] | Effective range against MMP-13 [10] | further results |
| --- | --- | --- | --- | --- | --- | --- | --- | --- | --- |
| Cc1ccc2nc(NCCN)c3ncc(C)n3c2c1 [BMS-345541] | 1 to 15.6 µM | 300 | 0.24 to 7.8 | 0.244 µM | 0.24 to 7.8 | 0.24 to 15.6 | 0.24 to 15.6 µM |  | Inhibition of NF-κB at the concentrations tested [1]: failed to inhibit; IC50 [7]: 4000 nM; t 1/2 [8]: 2.2 h |
| [C-]#[O+].[C-]#[O+].[C-]#[O+].[C-]#[O+].[C-]#[O+].[C-]#[O+].[Cl][Ru][Cl].[Cl][Ru][Cl] [CORM-2, tricarbonyldichlororuthenium(II) dimer] |  |  | 20 to 40 | 20–40+ μM |  |  |  | 10 – 40 M | Lowest inhibitory concentration, matrix resorption [9]: 20 µM; Non-toxic range (Synovial) [11]: 2.5 to 40 M; Non-toxic range (Chondrocyte) [12]: 0.625 to 40 M |
| O=C1C(=Cc2ccccc2F)CNCC1=Cc1ccccc1F [Curcumin-14, 3,5-bis(2-flurobenzylidene)piperidin-4-one] |  |  | 2.5 to 10 | 2.5 to 10 µM |  |  |  | ≥ 0.625 µM | Effective range against NFkB [1]: ≥ 2.5 µM; times more potent than curcumin ([13]; reportedly): Reportedly 10 times more potent than curcumin Inhibits NF-κB by inhibiting IκB kinase (IKK) [82] Potent anticarcinogenic activity inducing death of lung, breast, ovarian, and cervical cancer cells [82]; Effective range against Osteoclasts [9]: Not effective |
| O=C(Nc1cc(C(F)(F)F)cc(C(F)(F)F)c1)c1cc(Cl)ccc1O [IKK inhibitor V, N-(3,5-bis-trifluoromethyl-phenyl)-5-chloro-2-hydroxy-benzamide] | Only at toxic |  | 1.625 to 26 | 1.625 to 26 µM |  |  | None |  | Non-toxic range (Synovial) ([4]; human): 0.1 to 0.2 µM; Non-toxic range (Chondrocyte) ([5]; male, human, 24 h): 0.4 to 13 µM; IC50 [14]: 250 nM; Toxic concentrations (p<0.05) ([6]; human): 101 to 26000 mM |
| NC(=O)Nc1sc(-c2ccccc2)cc1C(N)=O [IKK inhibitor VI, (5-Phenyl-2-ureido)thiophene-3-carboxamide] | 0.23 to 15.3 µM | 13 to 18 | 0.95 to 4.0 | 0.24 to 15.2 µM | 0.028 to 0.25 | 0.23 to 15.6 | 0 to 900000 µM | ≥ 0.24 µM | Effective range against NFkB [1]: ≥ 0.95 µM; Effective range against Osteoclasts [9]: ≥ 0.5 µM; Toxic concentrations (p<0.05) [6]: 0.0019 to 0.00383 mM |
| N#Cc1c(C2CCNCC2)cc(-c2c(O)cccc2OCC2CC2)nc1N [IKK inhibitor VIII, 2-amino-6-(2-(cyclopropylmethoxy)-6-hydroxyphenyl)-4-(4-piperidinyl)-3-pyridinecarbonitrile] |  | 8.5 | 2 to 4 | 4 (toxicity to synovial cells) μM | 0.3 to 2 | 0.25 to 16 |  |  | minimal effective concentration ([9]; Mus musculus, RAW264.7, 168 h, read-out: Lowest inhibitory concentration, matrix resorption): 0.5 µM; IC50 ([7]; ref per Calbiochem): 250 nM |
| NC(=O)Nc1sc(-c2ccc(F)cc2)cc1C(N)=O [IKK-2 inhibitor IV, [5-(p-Fluorophenyl)-2-ureido]thiophene-3-carboxamide] | Not consistently | […] |  |  | […] |  | […] |  | IC50 [15]: 150 to 2500 nM; Inhibition of NF-κB at the concentrations tested [1]: […]; Reduced paw edema [16]: ~100%; IC50 [17]: 100 nM; Toxic concentrations (p<0.05) [6]: […] |
| COc1ccc(/C=C/c2ccccc2F)cc1 [NF-κB activation inhibitor IV, (E)-2-fluoro-4′-methoxystilbene] |  |  |  |  |  |  |  |  | fold more potent than resveratrol at inhibiting NF-κB [13]: Experimentally used as an anti-inflammatory but not an antioxidant 130-fold more potent than resveratrol at inhibiting NF-κB [94] |
